According to patent US20230278996A1, “YKL-40 INHIBITORS AND THEIR THERAPEUTIC APPLICATIONS” (Molecure S.A., priority 2022, published 2023):
Counter-ions that a name gives are not always drawn.

Target: YKL-40 (Homo sapiens (Human), UniProt P36222)
Experiment: YKL-40:4 assay, competitive chitin binding site AlphaScreen
Settings: competition with biotinylated compound 4 (20 nM), YKL-40-histag 2.5 nM

YKL-40, sequence (P36222 22-383): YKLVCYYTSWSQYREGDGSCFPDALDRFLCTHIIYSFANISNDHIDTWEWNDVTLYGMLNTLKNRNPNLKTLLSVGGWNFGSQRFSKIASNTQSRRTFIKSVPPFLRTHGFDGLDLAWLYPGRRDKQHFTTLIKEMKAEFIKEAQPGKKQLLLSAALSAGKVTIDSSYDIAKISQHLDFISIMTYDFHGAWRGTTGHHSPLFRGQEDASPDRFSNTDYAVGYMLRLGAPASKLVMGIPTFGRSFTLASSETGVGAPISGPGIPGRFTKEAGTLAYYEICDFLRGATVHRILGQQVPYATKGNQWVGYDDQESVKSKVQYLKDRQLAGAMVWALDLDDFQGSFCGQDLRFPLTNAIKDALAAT

CC1CC(N2C[C@H](C)OC[C@@H]2Cc2ccc(Cl)cc2)CCN1c1cc(Cl)ccn1 (single isomer, unassigned) [Example 31, 2,2,2-trifluoroacetate]
IC50: 1000 to 10000 nM

CC1CC(N2C[C@H](C)OC[C@@H]2Cc2ccc(Cl)cc2)CCN1c1cc(Cl)ccn1 (single isomer, unassigned) [Example 32, 2,2,2-trifluoroacetate]
IC50: < 100 nM

CC(C)C[C@H]1CN(C2CCN(c3ccccn3)CC2)[C@@H](Cc2ccc(Cl)cc2)CN1C(=O)OC(C)(C)C [Example 2e, tert-butyl (2S,5S)-5-(4-chlorobenzyl)-2-isobutyl-4-(1-(pyridin-2-yl)piperidin-4-yl)piperazine-1-carboxylate]
IC50: > 100000 nM

COCCOCCOCCOCCOCCOCCOCCOCCOCCOCCOCCOCCC(=O)OC[C@H]1CN(C2CCN(c3ccccn3)CC2)[C@@H](Cc2ccc(Cl)cc2)CO1 [Example 7, ((2R,5S)-5-(4-chlorobenzyl)-4-(1-(pyridin-2-yl)piperidin-4-yl)morpholin-2-yl)methyl 2,5,8,11,14,17,20,23,26,29,32,35-dodecaoxaoctatriacontan-38-oate 2,2,2-trifluoroacetate]
IC50: 100 to 1000 nM

C[C@H]1CN(C2CCN(C(=O)OC(C)(C)C)CC2)[C@@H](Cc2ccc(Cl)cc2)CO1 [Example 8d, tert-butyl 4-((2S,5S)-5-(4-chlorobenzyl)-2-methylmorpholino)piperidine-1-carboxylate]
IC50: > 100000 nM

C[C@H]1CN(C2CCN(c3ccc(F)cn3)CC2)[C@@H](Cc2ccc(Cl)cc2)CO1 [Example 9, (2S,5S)-5-(4-chlorobenzyl)-4-(1-(5-fluoropyridin-2-yl)piperidin-4-yl)-2-methylmorpholine 2,2,2-trifluoroacetate]
IC50: 1000 to 10000 nM

C[C@H]1CN(C2CCN(c3ccc(Cl)cn3)CC2)[C@@H](Cc2ccc(Cl)cc2)CO1 [Example 11, (2S,5S)-5-(4-chlorobenzyl)-4-(1-(5-chloropyridin-2-yl)piperidin-4-yl)-2-methylmorpholine 2,2,2-trifluoroacetate]
IC50: 100 to 1000 nM

C[C@H]1CN(C2CCN(c3cnccn3)CC2)[C@@H](Cc2ccc(Cl)cc2)CO1 [Example 12, (2S,5S)-5-(4-chlorobenzyl)-2-methyl-4-(1-(pyrazin-2-yl)piperidin-4-yl)morpholine 2,2,2-trifluoroacetate]
IC50: 1000 to 10000 nM

C[C@H]1CN(C2CCN(c3cccc(Cl)n3)CC2)[C@@H](Cc2ccc(Cl)cc2)CO1 [Example 14, (2S,5S)-5-(4-chlorobenzyl)-4-(1-(6-chloropyridin-2-yl)piperidin-4-yl)-2-methylmorpholine 2,2,2-trifluoroacetate]
IC50: 1000 to 10000 nM

C[C@H]1CN(C2CCN(c3ccnc(F)c3)CC2)[C@@H](Cc2ccc(Cl)cc2)CO1 [Example 15, (2S,5S)-5-(4-chlorobenzyl)-4-(1-(2-fluoropyridin-4-yl)piperidin-4-yl)-2-methylmorpholine 2,2,2-trifluoroacetate]
IC50: 1000 to 10000 nM

Cc1cccnc1N1CCC(N2C[C@H](C)OC[C@@H]2Cc2ccc(Cl)cc2)CC1 [Example 16, (2S,5S)-5-(4-chlorobenzyl)-2-methyl-4-(1-(3-methylpyridin-2-yl)piperidin-4-yl)morpholine 2,2,2-trifluoroacetate]
IC50: > 100000 nM

C[C@H]1CN(C2CCN(c3cccc(C#N)n3)CC2)[C@@H](Cc2ccc(Cl)cc2)CO1 [Example 18, 6-(4-((2S,5S)-5-(4-chlorobenzyl)-2-methylmorpholino)piperidin-1-yl)picolinonitrile 2,2,2-trifluoroacetate]
IC50: > 100000 nM

C[C@H]1CN(C2CCN(c3ccc(C#N)cn3)CC2)[C@@H](Cc2ccc(Cl)cc2)CO1 [Example 19, 6-(4-((2S,5S)-5-(4-chlorobenzyl)-2-methylmorpholino)piperidin-1-yl)nicotinonitrile 2,2,2-trifluoroacetate]
IC50: > 100000 nM

C[C@H]1CN(C2CCN(c3cc(C(F)(F)F)ccn3)CC2)[C@@H](Cc2ccc(Cl)cc2)CO1 [Example 20, (2S,5S)-5-(4-chlorobenzyl)-2-methyl-4-(1-(4-(trifluoromethyl)pyridin-2-yl)piperidin-4-yl)morpholine 2,2,2-trifluoroacetate]
IC50: 1000 to 10000 nM

C[C@H]1CN(C2CCN(c3ncccc3C#N)CC2)[C@@H](Cc2ccc(Cl)cc2)CO1 [Example 22, 2-(4-((2S,5S)-5-(4-chlorobenzyl)-2-methylmorpholino)piperidin-1-yl)nicotinonitrile 2,2,2-trifluoroacetate]
IC50: 100 to 1000 nM

C[C@H]1CN(C2CCN(c3ncccc3Cl)CC2)[C@@H](Cc2ccc(Cl)cc2)CO1 [Example 23, (2S,5S)-5-(4-chlorobenzyl)-4-(1-(3-chloropyridin-2-yl)piperidin-4-yl)-2-methylmorpholine 2,2,2-trifluoroacetate]
IC50: 1000 to 10000 nM

C[C@H]1CN(C2CCN(c3cc(F)ncn3)CC2)[C@@H](Cc2ccc(Cl)cc2)CO1 [Example 24, (2S,5S)-5-(4-chlorobenzyl)-4-(1-(6-fluoropyrimidin-4-yl)piperidin-4-yl)-2-methylmorpholine 2,2,2-trifluoroacetate]
IC50: > 100000 nM

C[C@H]1CN(C2CCN(c3ncc(F)cc3F)CC2)[C@@H](Cc2ccc(Cl)cc2)CO1 [Example 25, (2S,5S)-5-(4-chlorobenzyl)-4-(1-(3,5-difluoropyridin-2-yl)piperidin-4-yl)-2-methylmorpholine 2,2,2-trifluoroacetate]
IC50: > 100000 nM

C[C@H]1CN(C2CCN(c3ccncn3)CC2)[C@@H](Cc2ccc(Cl)cc2)CO1 [Example 26, (2S,5S)-5-(4-chlorobenzyl)-2-methyl-4-(1-(pyrimidin-4-yl)piperidin-4-yl)morpholine 2,2,2-trifluoroacetate]
IC50: > 100000 nM

C[C@H]1CN(C2CCN(c3cccnc3)CC2)[C@@H](Cc2ccc(Cl)cc2)CO1 [Example 27, (2S,5S)-5-(4-chlorobenzyl)-2-methyl-4-(1-(pyridin-3-yl)piperidin-4-yl)morpholine 2,2,2-trifluoroacetate]
IC50: > 100000 nM

C[C@H]1CN(C2CCN(c3ccncc3)CC2)[C@@H](Cc2ccc(Cl)cc2)CO1 [Example 28, (2S,5S)-5-(4-chlorobenzyl)-2-methyl-4-(1-(pyridin-4-yl)piperidin-4-yl)morpholine 2,2,2-trifluoroacetate]
IC50: > 100000 nM

COc1ccnc(N2CCC(N3C[C@H](C)OC[C@@H]3Cc3ccc(Cl)cc3)CC2)c1 [Example 29, (2S,5S)-5-(4-chlorobenzyl)-4-(1-(4-methoxypyridin-2-yl)piperidin-4-yl)-2-methylmorpholine 2,2,2-trifluoroacetate]
IC50: 100 to 1000 nM

Cc1cnnc(N2CCC(N3C[C@H](C)OC[C@@H]3Cc3ccc(Cl)cc3)CC2)c1 [Example 30, (2S,5S)-5-(4-chlorobenzyl)-2-methyl-4-(1-(5-methylpyridazin-3-yl)piperidin-4-yl)morpholine 2,2,2-trifluoroacetate]
IC50: 1000 to 10000 nM

CC1CC(N2C[C@H](C)OC[C@@H]2Cc2ccc(Cl)cc2)CCN1c1cc(Cl)ccn1 (stereo partly drawn) [Example 33, (2S,5S)-5-(4-chlorobenzyl)-4-(1-(4-chloropyridin-2-yl)-2-methylpiperidin-4-yl)-2-methylmorpholine 2,2,2-trifluoroacetate]
IC50: 1000 to 10000 nM

CC1CC(N2C[C@H](C)OC[C@@H]2Cc2ccc(Cl)cc2)CCN1c1cc(Cl)ccn1 (stereo partly drawn) [Example 34, (2S,5S)-5-(4-chlorobenzyl)-4-(1-(4-chloropyridin-2-yl)-2-methylpiperidin-4-yl)-2-methylmorpholine 2,2,2-trifluoroacetate]
IC50: 100 to 1000 nM

C[C@H]1CN(C2CCN(c3ccccc3)CC2)[C@@H](Cc2ccc(Cl)cc2)CO1 [Example 37, (2S,5S)-5-(4-chlorobenzyl)-2-methyl-4-(1-phenylpiperidin-4-yl)morpholine dihydrochloride]
IC50: > 100000 nM

Clc1ccc(C[C@H]2CN3CCC[C@H]3CN2C2CCN(c3ccccn3)CC2)cc1 [Example 38, (3S,8aS)-3-(4-chlorobenzyl)-2-(1-(pyridin-2-yl)piperidin-4-yl)octahydropyrrolo[1,2-α]pyrazine 2,2,2-trifluoroacetate]
IC50: < 100 nM

Cc1ccnc(N2CCC(N3C[C@H](C)OC[C@@H]3Cc3ccc(Cl)cc3)CC2)n1 [Example 39, (2S,5S)-5-(4-chlorobenzyl)-2-methyl-4-(1-(4-methylpyrimidin-2-yl)piperidin-4-yl)morpholine dihydrochloride]
IC50: 100 to 1000 nM

O[C@@H]1C[C@H]2CN(C3CCN(c4ncccn4)CC3)[C@@H](Cc3ccc(Cl)cc3)CN2C1 [Example 40, (3S,7R,8aS)-3-(4-chlorobenzyl)-2-(1-(pyrimidin-2-yl)piperidin-4-yl)octahydropyrrolo[1,2-α]pyrazin-7-ol 2,2,2-trifluoroacetate]
IC50: 100 to 1000 nM

Cc1ccnc(N2CCC(N3C[C@@H]4C[C@@H](O)CN4C[C@@H]3Cc3ccc(Cl)cc3)CC2)n1 [Example 41, (3S,7R,8aS)-3-(4-chlorobenzyl)-2-(1-(4-methylpyrimidin-2-yl)piperidin-4-yl)octahydropyrrolo[1,2-α]pyrazin-7-ol 2,2,2-trifluoroacetate]
IC50: 100 to 1000 nM

O[C@H]1C[C@H]2CN(C3CCN(c4ncccn4)CC3)[C@@H](Cc3ccc(Cl)cc3)CN2C1 [Example 42, (3S,7S,8aS)-3-(4-chlorobenzyl)-2-(1-(pyrimidin-2-yl)piperidin-4-yl)octahydropyrrolo[1,2-α]pyrazin-7-ol 2,2,2-trifluoroacetate]
IC50: 100 to 1000 nM

Cc1ccnc(N2CCC(N3C[C@@H]4C[C@H](O)CN4C[C@@H]3Cc3ccc(Cl)cc3)CC2)n1 [Example 43, (3S,7S,8aS)-3-(4-chlorobenzyl)-2-(1-(4-methylpyrimidin-2-yl)piperidin-4-yl)octahydropyrrolo[1,2-α]pyrazin-7-ol 2,2,2-trifluoroacetate]
IC50: 100 to 1000 nM

C[C@H]1CN(C2CCN(c3ncc(F)cn3)CC2)[C@@H](Cc2ccc(Cl)cc2)CO1 [compound 46, (2S,5S)-5-(4-chlorobenzyl)-4-(1-(5-fluoropyrimidin-2-yl)piperidin-4-yl)-2-methylmorpholine 2,2,2-trifluoroacetate]
IC50: 1000 to 10000 nM

Cc1ccnc(N2CCC(N3C[C@H](C)OC[C@@H]3Cc3ccc(Cl)cc3)CC2)c1C#N [compound 47, 2-(4-((2S,5S)-5-(4-chlorobenzyl)-2-methylmorpholino)piperidin-1-yl)-4-methyl-nicotinonitrile 2,2,2-trifluoroacetate]
IC50: 100 to 1000 nM
